Our source for the IC50 values is patent US9573957B2 (Boehringer Ingelheim International GmbH, priority 2013, dated 2017).

Experiment [1] concerns synthesis of LTB4 in human whole blood. The experiment in a line: LTB4 production inhibition assay in human whole blood (HWB). The format is cell-based. To be noted: heparinized human whole blood, 15 min at 37° C., Calcimycin 20 μM 30 min, plasma LTB4 by HTRF. The essentials: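 LTB4 in plasma read by HTRF immunoassay after centrifugation. Before that, compound sat with heparinized human whole blood 15 min at 37° C, followed by 30 min at 37° C with 20 μM (final) calcimycin.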
A general note: Time-resolved FRET reads energy transfer from a long-lived donor to a nearby acceptor.

The target in experiment [2] is human LTA4 hydrolase (Homo sapiens (Human), UniProt P09960). The experiment in a line: LTA4H Enzyme assay (peptidase, Arg-AMC cleavage). The format is biochemical. To be noted: LTA4H Enzyme 1 nM, Arg-AMC substrate 50 μM, room temperature 1 h, fluorescence. The essentials:
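Aminomethylcoumarin release measured fluorimetrically (380/460 nm) after 1 h at room temperature. Reaction: 1 nM final enzyme, 50 μM final Arg-AMC and compound in Tris-HCl pH 7.5 with 100 mM KCl and 0.5% BSA.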

The structures appear in SMILES notation.

human LTA4 hydrolase, sequence (P09960 whole entry): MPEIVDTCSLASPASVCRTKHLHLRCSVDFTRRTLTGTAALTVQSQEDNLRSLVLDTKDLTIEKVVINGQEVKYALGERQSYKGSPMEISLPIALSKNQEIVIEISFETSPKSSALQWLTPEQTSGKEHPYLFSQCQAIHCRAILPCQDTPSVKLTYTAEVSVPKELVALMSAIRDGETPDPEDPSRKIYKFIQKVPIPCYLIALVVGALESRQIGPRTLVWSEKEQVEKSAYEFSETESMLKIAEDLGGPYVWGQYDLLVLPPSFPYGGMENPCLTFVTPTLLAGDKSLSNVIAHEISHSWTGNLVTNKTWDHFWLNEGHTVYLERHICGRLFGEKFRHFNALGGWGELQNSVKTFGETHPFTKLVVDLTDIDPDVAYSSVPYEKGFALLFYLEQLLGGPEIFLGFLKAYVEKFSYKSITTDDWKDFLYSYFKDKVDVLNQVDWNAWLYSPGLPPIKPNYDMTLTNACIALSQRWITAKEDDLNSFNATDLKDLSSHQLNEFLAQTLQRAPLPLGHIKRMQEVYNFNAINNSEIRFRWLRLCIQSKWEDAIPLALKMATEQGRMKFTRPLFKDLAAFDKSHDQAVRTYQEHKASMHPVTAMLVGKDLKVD

`COCC(=O)N1CCN(CCc2coc3cc(Oc4ccc(-c5ccn[nH]5)cn4)ccc23)CC1` [Example 77, 2-Methoxy-1-[4-(2-{6-[5-(2H-pyrazol-3-yl)-pyridin-2-yloxy]-benzofuran-3-yl}-ethyl)-piperazin-1-yl]-ethanone]: the results for the 50% inhibitory concentration (IC50) in experiment [1] and in experiment [2] were 0.17 µM and 0.00088 µM, respectively.
In the same order, the values of `CO[C@H](C)C(=O)N1CCN(CCc2coc3cc(Oc4ccc(-c5ccn[nH]5)cn4)ccc23)CC1` [Example 78, (R)-2-Methoxy-1-[4-(2-{6-[5-(2H-pyrazol-3-yl)-pyridin-2-yloxy]-benzofuran-3-yl}-ethyl)-piperazin-1-yl]-propan-1-one] are 0.19 µM and 0.00092 µM.
In the same order, the values of `CO[C@H](C)C(=O)N1CCN(Cc2cn3cc(Oc4ccc(-c5ccn[nH]5)cc4)ccc3n2)CC1` [Example 80, (R)-2-Methoxy-1-(4-{6-[4-(2H-pyrazol-3-yl)-phenoxy]-imidazo[1,2-a]pyridin-2-ylmethyl}-piperazin-1-yl)-propan-1-one] are 0.2 µM and 0.00085 µM.
With `CC(C)(O)C(=O)N1CCN(CCC2COc3cc(Oc4ccc(-c5ccn[nH]5)cn4)ccc32)CC1` (centres unmarked) [Example 81, 2-Hydroxy-2-methyl-1-[4-(2-{6-[5-(2H-pyrazol-3-yl)-pyridin-2-yloxy]-2,3-dihydro-benzofuran-3-yl}-ethyl)-piperazin-1-yl]-propan-1-one], the IC50 – broadly, the concentration needed to halve the response being measured – is 0.58 µM in experiment [1] and 0.0022 µM in experiment [2].
On the same counts, the results for `O=C(CO)N1CCN(CCc2coc3cc(Oc4ccc(-c5ccn[nH]5)cn4)ccc23)CC1` [Example 82, 2-Hydroxy-1-[4-(2-{6-[5-(2H-pyrazol-3-yl)-pyridin-2-yloxy]-benzofuran-3-yl}-ethyl)-piperazin-1-yl]-ethanone] are 0.41 µM and 0.0013 µM.
For the compound `C[C@H](O)C(=O)N1CCN(CCc2coc3cc(Oc4ccc(-c5ccn[nH]5)cn4)ccc23)CC1` [Example 83, (S)-2-Hydroxy-1-[4-(2-{6-[5-(2H-pyrazol-3-yl)-pyridin-2-yloxy]-benzofuran-3-yl}-ethyl)-piperazin-1-yl]-propan-1-one], the IC50 was found to be 0.24 µM in experiment [1] and 0.00086 µM in experiment [2].
On the same counts, the results for `C[C@H](O)C(=O)N1CCN(CCC2COc3cc(Oc4ccc(-c5ccn[nH]5)cn4)ccc32)CC1` (stereo partly drawn) [Example 84, (S)-2-Hydroxy-1-[4-(2-{6-[5-(2H-pyrazol-3-yl)-pyridin-2-yloxy]-2,3-dihydro-benzofuran-3-yl}-ethyl)-piperazin-1-yl]-propan-1-one] are 0.45 µM and 0.0013 µM.
As for `CC(C)(O)C(=O)N1CCN(CCc2coc3cc(Oc4ccc(-c5ccn[nH]5)cn4)ccc23)CC1` [Example 85, 2-Hydroxy-2-methyl-1-[4-(2-{6-[5-(2H-pyrazol-3-yl)-pyridin-2-yloxy]-benzofuran-3-yl}-ethyl)-piperazin-1-yl]-propan-1-one], the IC50 in experiment [1] was 0.31 µM; in experiment [2] it was 0.0013 µM.
As to `C[C@H](O)C(=O)N1CCN(Cc2cn3cc(Oc4ccc(-c5ccn[nH]5)cc4)ccc3n2)CC1` [Example 87, (S)-2-Hydroxy-1-(4-{6-[4-(2H-pyrazol-3-yl)-phenoxy]-imidazo[1,2-a]pyridin-2-ylmethyl}-piperazin-1-yl)-propan-1-one], the IC50 was determined as 0.26 µM in experiment [1] and 0.001 µM in experiment [2].
In the case of `CO[C@@H](C)C(=O)N1CCN(CCC2COc3cc(Oc4ccc(-c5ccn[nH]5)cn4)ccc32)CC1` (stereo partly drawn) [Example 88, (S)-2-Methoxy-1-[4-(2-{6-[5-(2H-pyrazol-3-yl)-pyridin-2-yloxy]-2,3-dihydro-benzofuran-3-yl}-ethyl)-piperazin-1-yl]-propan-1-one], the half-inhibitory concentration (IC50) is 0.41 µM in experiment [1] and 0.0012 µM in experiment [2].
Consider `COCC(=O)N1CCN(Cc2cn3cc(Oc4ccc(-c5ccn[nH]5)cc4)ccc3n2)CC1` [Example 89, 2-Methoxy-1-(4-{6-[4-(2H-pyrazol-3-yl)-phenoxy]-imidazo[1,2-a]pyridin-2-ylmethyl}-piperazin-1-yl)-ethanone], for which the half-inhibitory concentration (IC50) in experiment [1] came to 0.47 µM; in experiment [2], 0.00066 µM.
On the same counts, the results for `O=C(N1CCN(CCC2COc3cc(Oc4ccc(-c5ccn[nH]5)cn4)ccc32)CC1)C1(O)CC1` (centres unmarked) [Example 90, (1-Hydroxy-cyclopropyl)-[4-(2-{6-[5-(2H-pyrazol-3-yl)-pyridin-2-yloxy]-2,3-dihydro-benzofuran-3-yl}-ethyl)-piperazin-1-yl]-methanone] are 0.64 µM and 0.0015 µM.
`C[C@@H](O)C(=O)N1CCN(CCC2COc3cc(Oc4ccc(-c5ccn[nH]5)cn4)ccc32)CC1` (stereo partly drawn) [Example 91, (R)-2-Hydroxy-1-[4-(2-{6-[5-(2H-pyrazol-3-yl)-pyridin-2-yloxy]-2,3-dihydro-benzofuran-3-yl}-ethyl)-piperazin-1-yl]-propan-1-one]: the concentration for half-maximal inhibition (IC50) is 0.93 µM in experiment [1] and 0.0022 µM in experiment [2].
Take `C[C@@H](O)C(=O)N1CCN(CCc2coc3cc(Oc4ccc(-c5ccn[nH]5)cn4)ccc23)CC1` [Example 92, (R)-2-Hydroxy-1-[4-(2-{6-[5-(2H-pyrazol-3-yl)-pyridin-2-yloxy]-benzofuran-3-yl}-ethyl)-piperazin-1-yl]-propan-1-one]: the results for the IC50 in experiment [1] and in experiment [2] were 0.47 µM and 0.0011 µM, respectively.
Take `O=C(N1CCN(CCc2coc3cc(Oc4ccc(-c5ccn[nH]5)cn4)ccc23)CC1)C1(O)CC1` [Example 93, (1-Hydroxy-cyclopropyl)-[4-(2-{6-[5-(2H-pyrazol-3-yl)-pyridin-2-yloxy]-benzofuran-3-yl}-ethyl)-piperazin-1-yl]-methanone]: the IC50 in experiment [1] was 0.53 µM; in experiment [2], 0.00091 µM.
On to `C[C@@H](O)C(=O)N1CCN(Cc2cn3cc(Oc4ccc(-c5ccn[nH]5)cc4)ccc3n2)CC1` [Example 94, (R)-2-Hydroxy-1-(4-{6-[4-(2H-pyrazol-3-yl)-phenoxy]-imidazo[1,2-a]pyridin-2-ylmethyl}-piperazin-1-yl)-propan-1-one], for which the IC50 stood at 0.35 µM in experiment [1] and 0.00087 µM in experiment [2].
`CC(=O)N1CCN(Cc2cn3cc(Oc4ccc(-c5ccn[nH]5)cc4)ccc3n2)CC1` [Example 95, 1-(4-{6-[4-(2H-Pyrazol-3-yl)-phenoxy]-imidazo[1,2-a]pyridin-2-ylmethyl}-piperazin-1-yl)-ethanone]: the IC50 in experiment [1] worked out at 0.28 µM; in experiment [2], 0.00059 µM.
In the same order, the values of `O=C(N1CCN(Cc2cn3cc(Oc4ccc(-c5ccn[nH]5)cc4)ccc3n2)CC1)C1(O)CC1` [Example 96, (1-Hydroxy-cyclopropyl)-(4-{6-[4-(2H-pyrazol-3-yl)-phenoxy]-imidazo[1,2-a]pyridin-2-ylmethyl}-piperazin-1-yl)-methanone] are 0.99 µM and 0.0012 µM.
In the same order, the values of `CC(=O)N1CCCN(Cc2coc3cc(Oc4ccc(-c5ccn[nH]5)cn4)ccc23)CC1` [Example 97, 1-(4-{6-[5-(2H-Pyrazol-3-yl)-pyridin-2-yloxy]-benzofuran-3-ylmethyl}-[1,4]diazepan-1-yl)-ethanone] are 0.21 µM and 0.00058 µM.
Take `CN(C(=O)CO)[C@@H]1CCN(Cc2ccc3cc(Oc4ccc(-c5ccn[nH]5)cn4)ccc3n2)C1` [Example 98]: the IC50 in experiment [1] worked out at 0.12 µM; in experiment [2] it was 0.00072 µM.
Consider `CN(C(=O)CO)[C@H]1CCN(Cc2ccc3cc(Oc4ccc(-c5ccn[nH]5)cn4)ccc3n2)C1` [Example 99], for which the IC50 amounted to 0.14 µM in experiment [1] and 0.00086 µM in experiment [2].
In the same order, the values of `CN(Cc1ccc2cc(Oc3ccc(-c4ccn[nH]4)cn3)ccc2n1)[C@@H]1CCN(C(=O)CO)C1` [Example 100, 2-Hydroxy-1-[(R)-3-(methyl-{6-[5-(2H-pyrazol-3-yl)-pyridin-2-yloxy]-quinolin-2-ylmethyl}-amino)-pyrrolidin-1-yl]-ethanone] are 0.17 µM and 0.00092 µM.
For `CN(Cc1ccc2cc(Oc3ccc(-c4ccn[nH]4)cn3)ccc2n1)[C@H]1CCN(C(=O)CO)C1` [Example 101, 2-Hydroxy-1-[(S)-3-(methyl-{6-[5-(2H-pyrazol-3-yl)-pyridin-2-yloxy]-quinolin-2-ylmethyl}-amino)-pyrrolidin-1-yl]-ethanone], the IC50 is 0.23 µM in experiment [1] and 0.002 µM in experiment [2].
In the same order, the values of `O=C(CO)N1CCC2(CCN(Cc3ccc4cc(Oc5ccc(-c6ccn[nH]6)cn5)ccc4n3)C2)C1` (centres unmarked) [Example 102, 2-Hydroxy-1-(7-{6-[5-(2H-pyrazol-3-yl)-pyridin-2-yloxy]-quinolin-2-ylmethyl}-2,7-diaza-spiro[4.4]non-2-yl)-ethanone] are 0.15 µM and 0.00066 µM.
For `CNC(=O)C1CCN(Cc2coc3cc(Oc4ccc(-c5ccn[nH]5)cn4)ccc23)CC1` [Example 103, 1-{6-[5-(2H-Pyrazol-3-yl)-pyridin-2-yloxy]-benzofuran-3-ylmethyl}-piperidine-4-carboxylic acid methylamide], the IC50 in experiment [1] is 0.17 µM; in experiment [2], 0.00049 µM.
Take `CC(=O)NC1CCN(Cc2coc3cc(Oc4ccc(-c5ccn[nH]5)cn4)ccc23)CC1` [Example 104, N-(1-{6-[5-(2H-Pyrazol-3-yl)-pyridin-2-yloxy]-benzofuran-3-ylmethyl}-piperidin-4-yl)-acetamide]: the IC50 is 0.15 µM in experiment [1] and 0.00056 µM in experiment [2].
In the same order, the values of `CS(=O)(=O)NC1CCN(Cc2coc3cc(Oc4ccc(-c5ccn[nH]5)cn4)ccc23)CC1` [Example 105, N-(1-{6-[5-(2H-Pyrazol-3-yl)-pyridin-2-yloxy]-benzofuran-3-ylmethyl}-piperidin-4-yl)-methanesulfonamide] are 0.21 µM and 0.00081 µM.
In the case of `CC(=O)NCC1CCN(Cc2coc3cc(Oc4ccc(-c5ccn[nH]5)cn4)ccc23)CC1` [Example 106, N-(1-{6-[5-(2H-Pyrazol-3-yl)-pyridin-2-yloxy]-benzofuran-3-ylmethyl}-piperidin-4-ylmethyl)-acetamide], the figures for the IC50 in experiment [1] and in experiment [2] were 0.12 µM and 0.00038 µM, respectively.
